The target in assay [1] is T1, BK receptors in human ciliary muscle cells (h-CM) (Homo sapiens, UniProt P30411).
T1 construct: h-CM cells expressing BK receptors were seeded; endogenous in cells; host or cells: human ciliary muscle (h-CM) cells
T1 sequence (P30411 1-391): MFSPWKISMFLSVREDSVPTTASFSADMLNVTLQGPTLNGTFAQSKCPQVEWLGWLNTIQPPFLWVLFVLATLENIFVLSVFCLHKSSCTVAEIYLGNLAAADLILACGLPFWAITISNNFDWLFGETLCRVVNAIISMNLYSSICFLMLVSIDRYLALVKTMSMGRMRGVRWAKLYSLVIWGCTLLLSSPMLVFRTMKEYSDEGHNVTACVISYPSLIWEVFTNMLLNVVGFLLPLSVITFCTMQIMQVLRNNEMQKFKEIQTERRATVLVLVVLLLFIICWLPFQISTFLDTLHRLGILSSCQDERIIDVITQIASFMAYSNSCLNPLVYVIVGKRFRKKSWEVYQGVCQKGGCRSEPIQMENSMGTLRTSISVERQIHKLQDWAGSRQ
As to the kind of experiment: Functional assay measuring [Ca2+]i mobilization (FLIPR) in h-CM cells. The class given is cell-based. The note with it: class symbols (in μM), read-out: CaM (EC50). The method, then:
On the day of the experiment, media was removed, cells were rinsed and 50 μL of serum-free media added. One vial of FLIPR Calcium Assay Kit dye was reconstituted in 50 mL of a FLIPR buffer consisting of Hank's Balanced Salt Solution (HBSS), 20 mM HEPES, and 2.5 mM probenecid, pH 7.4. Cells were loaded with the calcium-sensitive dye by addition of an equal volume (50 μL) to each well of the 96-well plate and incubated with dye for 1 h at 23° C. […] After this time, the test compound plate and cell plate were placed in a Fluorescence Imaging Plate Reader (FLIPR-Tetra®) instrument (Molecular Devices/MDSPharma, Sunnyvale, Calif.). At the beginning of an experimental run, a signal test was performed to check the basal fluorescence signal from the dye-loaded cells and the uniformity of the signal across the plate. […] An aliquot (25 μL) of the test compound was added to the existing 100 μL dye-loaded cells at a dispensing speed of 50 μL/sec. Intracellular calcium mobilization was measured by monitoring real-time changes in cellular fluorescence upon test compound addition. Fluorescence data were collected in real-time at 1.0 sec intervals for the first 60 seconds and at 6.0 second intervals for an additional 120 seconds. Baseline fluorescence readings were normalized across the plate and background-corrected from negative control wells. […] EC50 values were determined by 4-parameter nonlinear curve fitting of the concentration-response curve. Calibration of the instrument was performed using manufacturer's standard procedures.

For assay [2], the system named is primary human ciliary muscle cells (h-CM). The assay is described as follows: Total prostaglandin (PG) release from primary h-CM cells (EIA). The format is cell-based. The note with it: 1 hour at 37° C., class symbols (in μM). Here is the method: BK agonist compounds of Formula 1 were evaluated for the ability to induce prostaglandin (PG) release from primary human ciliary muscle cells (h-CM). Briefly, h-CM cells were grown to confluence in FNC-coated 24-well culture plates and serum-starved (0.8% FBS) for 24 hours prior to the experiment. Cells were stimulated with a 9-pt concentration-response (0.1 nM-10 μM) of bradykinin or BK agonist for 1 hour at 37° C. with subsequent sample recovery and processing for total PG measurement. Total PG measurement was determined using a total Prostaglandin Screening EIA kit (cat#514012) purchased from Cayman Chemical (Ann Arbor, Mich.). The assay was conducted according to the package insert from the manufacturer.

Assay [3] addresses T2, recombinant human bradykinin B2 receptor (Homo sapiens, UniProt P30411).
T2 construct: expressed in transfected cells; host or cells: Chinese hamster ovary (CHO) cells, membrane homogenates
T2 sequence (P30411 1-391): T1 sequence (P30411 1-391)
As to the kind of experiment: [3H]-BK competition radioligand binding to human cloned B2 receptor (CHO cell membranes). The following applies: 0.2 nM [3H]-bradykinin, CHO membranes, 60 min 23° C.; mean ± SEM or single value; Ki from IC50 by Cheng-Prusoff; read-out: [3H]-BK Binding to Human Cloned B2 Receptor (Ki). The method, then: Chinese hamster ovary (CHO) cell membrane homogenates (2.5 μg protein) expressing the recombinant human bradykinin B2 receptor were incubated for 60 min at 23° C. with 0.2 nM [^3H]-bradykinin (95.5 Ci/mmole, PerkinElmer) in the absence or presence of the test compound in a buffer containing 50 mM Tris/HCl (pH 7.4), 0.2 g/L 1-10-phenanthroline and 0.1% BSA. All reagent and test compound additions to the assay plates were made using Biomek 3000 robotic workstations (Beckman Instruments, Fullerton, Calif.). Nonspecific binding was determined in the presence of 1 μM unlabeled bradykinin. Following the incubation, the assay was terminated by rapid filtration under vacuum through glass fiber filters (GF/C, PerkinElmer) presoaked with 0.3% polyethyleneimine and rinsed several times with an ice-cold 50 mM Tris-HCl buffer using a 96-sample cell harvester (Tomtec). The filters were air-dried and the radioactivity counted in a beta-scintillation counter (Topcount, PerkinElmer) using a scintillation cocktail (Microscint 20, PerkinElmer) (Sharif and Whiting, Neurochem. Int. 18: 89-96, 1991). Competitive binding inhibition curves were generated using a 7-point concentration—response of test compound in duplicate. Bradykinin peptide was also tested as an internal control in the assay. The data were analyzed using nonlinear, iterative curve-fitting to obtain the potency and intrinsic activities of the test agents as previously described (Sharif et al. J. Pharmacol. Exp. Ther. 286: 1094-1102, 1998; Sharif et al. Invest Ophthalmol. Vis. Sci. 39:2562-2571, 1998; Kelly et al. J. Pharmacol. Exp. Ther. 304: 238-245, 2003). Determined IC50 values were converted to Ki values using the standard Cheng-Prusoff equation.

pKi: −log10 of the molar value.

In general, EC50 refers to the concentration needed to bring the measured effect to its halfway point. As to `CNC(=O)c1ccc(CCC(=O)NCC(=O)N(C)c2ccc(Cl)c(COc3cccc4c3nc(OC)n4Cc3cn(C)cn3)c2Cl)cn1` [Compound 86], the EC50 in assay [1] is under 0.1 µM; in assay [2] (Homo sapiens, 1 h) it was under 0.1 µM.

By pKi is commonly meant the negative decadic logarithm of the Ki, by convention in mol/L. For `COc1nc2c(OCc3c(Cl)ccc(N(C)C(=O)CNC(=O)COc4cnc(NC(C)=O)nc4)c3Cl)cccc2n1Cc1ccccn1` [Compound 75], the EC50 is under 0.1 µM in assay [1] and 0.1 to 1 µM in assay [2] (Homo sapiens, 1 h). The pKi in assay [3] is 6.26.

As for `CNC(=O)c1ccc(CCC(=O)NCC(=O)N(C)c2ccc(Cl)c(COc3cccc4c(OCc5ccccn5)cc(C)nc34)c2Cl)cn1` [Compound 27, 5-(3-((2-((2,4-dichloro-3-(((2-methyl-4-(pyridin-2-ylmethoxy)quinolin-8-yl)oxy)methyl)phenyl)(methyl)amino)-2-oxoethyl)amino)-3-oxopropyl)-N-methylpicolinamide], the EC50 in assay [1] was in the range of 0.1 to 1 µM; in assay [2] (Homo sapiens, 1 h), 0.1 to 1 µM. Also, the pKi in assay [3] is 7.96.

As to `COc1nc2c(OCc3c(Cl)ccc(N(C)C(=O)CNC(=O)CN4CCOC(C(=O)NCCO)C4)c3Cl)cccc2n1Cc1ccccn1` (stereo not shown) [Compound 80], the EC50 in assay [1] was under 0.1 µM; in assay [2] (Homo sapiens, 1 h), 0.1 to 1 µM. Further, the pKi in assay [3] is 6.55.

As to `COC(=O)Nc1ccc(CCC(=O)NCC(=O)N(C)c2ccc(Cl)c(COc3cccc4c3nc(OC)n4Cc3ccccn3)c2Cl)cn1` [Compound 2, methyl (5-(3-((2-((2,4-dichloro-3-(((2-methoxy-1-(pyridin-2-ylmethyl)-1H-benzo[d]imidazol-4-yl)oxy)methyl)phenyl)(methyl)amino)-2-oxoethyl)amino)-3-oxopropyl)pyridin-2-yl)carbamate], the EC50 is under 0.1 µM in assay [1] and under 0.1 µM in assay [2] (Homo sapiens, 1 h). The pKi in assay [3] is 7.00.

On to `COc1nc2c(OCc3c(Cl)ccc(N(C)C(=O)CNC(=O)CCCN4CCNC(=O)C4)c3Cl)cccc2n1Cc1ccccn1` [Compound 72], for which the EC50 in assay [1] was under 0.1 µM; in assay [2] (Homo sapiens, 1 h), over 1 µM.

On to “4-(3-((2-((2,4-dichloro-3-(((2-methyl-4-(pyridin-2-ylmethoxy)quinolin-8-yl)oxy)methyl)phenyl)(methyl)amino)-2-oxoethyl)amino)-3-oxopropyl)-N-methylbenzamide [Compound 31]”, for which the EC50 in assay [1] is under 0.1 µM; in assay [2], 0.1 to 1 µM.

For `CNC(=O)c1ccc(CCC(=O)NCC(=O)N(C)c2ccc(Cl)c(COc3cccc4c3nc(OC)n4Cc3ccccn3)c2Cl)nc1` [Compound 43, 6-(3-((2-((2,4-dichloro-3-(((2-methoxy-1-(pyridin-2-ylmethyl)-1H-benzo[d]imidazol-4-yl)oxy)methyl)phenyl)(methyl)amino)-2-oxoethyl)amino)-3-oxopropyl)-N-methylnicotinamide], the EC50 in assay [1] is under 0.1 µM; in assay [2] (Homo sapiens, 1 h) it was under 0.1 µM.

In the case of `CNC(=O)c1ccc(CCC(=O)NCC(=O)N(C)c2ccc(Cl)c(COc3cccc4c(OCc5cn(C)cn5)cc(C)nc34)c2Cl)cn1` [Compound 48, 5-(3-((2-((2,4-dichloro-3-(((2-methyl-4-((1-methyl-1H-imidazol-4-yl)methoxy)quinolin-8-yl)oxy)methyl)phenyl)(methyl)amino)-2-oxoethyl)amino)-3-oxopropyl)-N-methylpicolinamide], the EC50 in assay [1] is under 0.1 µM; in assay [2] (Homo sapiens, 1 h) it was 0.1 to 1 µM.

Consider `CNC(=O)c1ccc(CCC(=O)NCC(=O)N(C)c2ccc(Cl)c(COc3cccc4c3nc(OC)n4Cc3cn(C)cn3)c2Cl)cc1` [Compound 78, 4-(3-((2-((2,4-dichloro-3-(((2-methoxy-1-((1-methyl-1H-imidazol-4-yl)methyl)-1H-benzo[d]imidazol-4-yl)oxy)methyl)phenyl)(methyl)amino)-2-oxoethyl)amino)-3-oxopropyl)-N-methylbenzamide], for which the EC50 in assay [1] is under 0.1 µM; in assay [2] (Homo sapiens, 1 h) it was under 0.1 µM.

As for `COc1nc2c(OCc3c(Cl)ccc(N(C)C(=O)CNC(=O)CN4CCC(NC(C)=O)C4)c3Cl)cccc2n1Cc1ccccn1` (stereo not shown) [Compound 66], the EC50 was under 0.1 µM in assay [1] and 0.1 to 1 µM in assay [2] (Homo sapiens, 1 h).

Turning to `CCOC(=O)COc1cc(C)nc2c(OCc3c(Cl)ccc(N(C)C(=O)CNC(=O)CCc4ccc(C(=O)NC)nc4)c3Cl)cccc12` [Compound 46, ethyl 2-((8-((2,6-dichloro-3-(N-methyl-2-(3-(6-(methylcarbamoyl)pyridin-3-yl)propanamido)acetamido)benzyl)oxy)-2-methylquinolin-4-yl)oxy)acetate], the EC50 in assay [1] was 0.1 to 1 µM; in assay [2] (Homo sapiens, 1 h), under 0.1 µM.

In the case of `CNC(=O)c1ccc(CCC(=O)NCC(=O)N(C)c2ccc(Cl)c(COc3cccc4c(OCc5cn(C)cn5)cc(C)nc34)c2Cl)cn1` [Compound 87], the results for the EC50 in assay [1] and in assay [2] were 0.1 to 1 µM and under 0.1 µM, respectively.

In the case of `COc1nc2c(OCc3c(Cl)ccc(N(C)C(=O)CNC(=O)CCc4ccc(C(=O)NCCO)nc4)c3Cl)cccc2n1Cc1cn(C)cn1` [Compound 85], the EC50 was under 0.1 µM in assay [1] and under 0.1 µM in assay [2] (Homo sapiens, 1 h).

On to `CNC(=O)c1ccc(CCC(=O)NCC(=O)N(C)c2ccc(Cl)c(COc3cccc4c(OCc5ccccc5F)cc(C)nc34)c2Cl)cn1` [Compound 47, 5-(3-((2-((2,4-dichloro-3-(((4-((2-fluorobenzyl)oxy)-2-methylquinolin-8-yl)oxy)methyl)phenyl)(methyl)amino)-2-oxoethyl)amino)-3-oxopropyl)-N-methylpicolinamide], for which the EC50 was 0.1 to 1 µM in assay [1] and under 0.1 µM in assay [2] (Homo sapiens, 1 h).

Regarding `CNC(=O)C1CCN(CC(=O)NCC(=O)N(C)c2ccc(Cl)c(COc3cccc4c3nc(OC)n4Cc3ccccn3)c2Cl)CC1` [Compound 13, 1-(2-((2-((2,4-dichloro-3-(((2-methoxy-1-(pyridin-2-ylmethyl)-1H-benzo[d]imidazol-4-yl)oxy)methyl)phenyl)(methyl)amino)-2-oxoethyl)amino)-2-oxoethyl)-N-methylpiperidine-4-carboxamide], the EC50 was 0.1 to 1 µM in assay [1] and over 1 µM in assay [2] (Homo sapiens, 1 h).

Turning to `COc1nc2c(OCc3c(Cl)ccc(N(C)C(=O)CNC(=O)CCc4ccc(N)nc4)c3Cl)cccc2n1Cc1ccccn1` [Compound 67], the EC50 in assay [1] is under 0.1 µM; in assay [2] (Homo sapiens, 1 h), over 1 µM.

Regarding “5-(3-((2-((2,4-dichloro-3-(((2-methyl-4-((pyridin-2-ylmethyl)amino)quinolin-8-yl)oxy)methyl)phenyl)(methyl)amino)-2-oxoethyl)amino)-3-oxopropyl)-N-methylpicolinamide [Compound 49]”, the EC50 in assay [1] and in assay [2] was 0.1 to 1 µM each time.

The values are drawn from patent US8252793B2, “Bradykinin receptor agonists and uses thereof to treat ocular hypertension and glaucoma” (Alcon Research, Ltd., priority 2010, dated 2012).
